{"source": "paper PMC4805609", "about": "“Estrogenic Effects of Several BPA Analogs in the Developing Zebrafish Brain” (Frontiers in Neuroscience, 2016)", "key": {"[1]": {"biological_target": "T1, zfERα (Danio rerio, UniProt P57717)", "T1 sequence (P57717 1-569)": "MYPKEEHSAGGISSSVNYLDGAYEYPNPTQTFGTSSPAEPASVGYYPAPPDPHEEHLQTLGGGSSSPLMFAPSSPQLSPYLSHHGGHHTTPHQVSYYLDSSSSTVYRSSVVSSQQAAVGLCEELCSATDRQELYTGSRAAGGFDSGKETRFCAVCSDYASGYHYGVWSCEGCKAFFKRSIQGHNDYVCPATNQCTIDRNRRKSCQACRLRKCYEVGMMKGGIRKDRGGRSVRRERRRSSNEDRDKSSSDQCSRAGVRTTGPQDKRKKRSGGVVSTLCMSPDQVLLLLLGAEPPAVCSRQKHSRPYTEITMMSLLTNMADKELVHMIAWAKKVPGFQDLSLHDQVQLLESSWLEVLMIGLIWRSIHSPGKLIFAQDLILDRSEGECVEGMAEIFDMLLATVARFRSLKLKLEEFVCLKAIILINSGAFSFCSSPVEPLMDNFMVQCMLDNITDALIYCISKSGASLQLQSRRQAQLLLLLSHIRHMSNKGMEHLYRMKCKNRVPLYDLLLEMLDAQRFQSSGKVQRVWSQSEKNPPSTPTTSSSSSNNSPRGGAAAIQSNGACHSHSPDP", "test": "competitive binding assay vs [3H]-E2 on in vitro translated zfERα", "design": "containing the coding regions of each zebrafish estrogen receptor cDNA; species or system zebrafish", "details": "for receptor-binding activity: competition with [3H]-E2, ERα, Figure 8A; for IC50: displacement of 10^−9 M [3H]-E2, ERα", "method": "We also performed a competitive binding assay to test the binding properties of our compounds of interest with the three zfERs (Blair et al., [2000]). The three zebrafish estrogen receptor proteins were synthesized using the Topo-pcDNA3 expression vector containing the coding region of zfERα, zfERβ1, and zfERβ2 (Menuet et al., [2002]). The TNT Quick Coupled Transcription/Translation Systems kit (Promega, Madison, WI, USA) was used for synthesis of zfER proteins by adding 1 μg of each ER expression vector and according to the manufacturer's protocol. […] IC50 were calculated using GraphPad Prism, version 6.07."}, "[2]": {"tested_on": "zebrafish embryos/larvae", "test": "Mortality, toxicity, teratogenicity and motility of exposed embryos/larvae", "type": "in vivo", "details": "EE2 1 nM, BPA 0.1, 1, 10 μM; until 7-days larval stage; data not shown"}, "[3]": {"tested_on": "cyp19a1b gene", "test": "RT-qPCR of cyp19a1b transcripts in wild type 7-dpf larva brains", "method": "(§1) For subsequent RT-qPCR and in situ hybridization analysis with wild type zebrafish, groups of 80 embryos (for each condition) were placed after 1 day post-fertilization (1-dpf) in a large glass flask containing 100 ml of embryonic medium (Mouriec et al., [2009b]). […] The embryos were held in the exposure flasks until 7-dpf larva stage. […] Embryos were maintained in the exposure dishes until 4-dpf larva stage. During the treatment period, 100% of the exposure medium was renewed every 24 h (for both wild type and transgenic zebrafish).\nTissue was sonicated (10 s, 3 times) in 250 μL Trizol Reagent (Invitrogen) and RNA extractions were carried out according to the manufacturer's protocol. Reverse transcription was carried out by incubating 2μg total RNA with 1μg of random primer oligonucleotides, 2.5ṁM dNTPs, and 50 U MMLV-RT (Promega) in the appropriate buffer for 10 min at 65°C and 60 min at 37°C. Quantitative Polymerase chain reaction (qPCR) experiments were performed in an iCycler thermocycler coupled to the MyiQ detector (Bio-Rad. Hercules, CA, USA) using iQ SYBR-Green Supermix (Bio-Rad) according to the manufacturer's protocol. The following primers were used: ef1 (fw) 5′-[…]-3′; ef1 (rev) 5′-[…]-3′; cyp19a1b (AroB; fw) 5′-[…] For each condition, the RT-PCR experiment was run in triplicates. Expression levels of ef1 mRNA were used to normalize cyp19a1b expression levels. Melting curve and PCR efficiency analyses were performed to confirm correct amplification. For quantification of PCR results, the threshold cycle (Ct) was determined for each reaction. Ct values for each gene of interest were normalized with the housekeeping gene ef1, using the ΔΔCt method. Normalized values were used to calculate the degree of induction or inhibition expressed as a “fold difference” compared to normalized control values."}, "[4]": {"biological_target": "T1, zfERα", "test": "cyp19a1b-luciferase reporter gene assay in U251-MG glial cells transfected with zfERα", "type": "cell-based, zebrafish", "design": "containing the coding regions of each zebrafish estrogen receptor cDNA; expressed in transfected cells; host or cells: human U251-MG glial cells (ER-negative)", "details": "for cyp19a1b-luciferase reporter gene induction: 10–6 M, 24 h, U251-MG cells with ERα, vs DMSO", "method": "(§2) The medium was also supplemented with 20 U/mL penicillin, 20 μg/mL streptomycin, and 50 ng/mL amphotericin B (Gibco). For transfections, cells were plated in 24-well plates at a density of 25,000 cells/ml in the same medium, except the fetal calf serum was charcoal-treated and used at a concentration of 2.5%. Cells were transfected with 25 ng/well either the vector expression containing or not the zfERα, zfERβ1, zfERβ2 coding region and cytomegalovirus [CMV]−β-Galactosidase, and 150 ng/well of the cyp19a1b-Luciferase reporter plasmid, using JetPEI as a transfection reagent (Polyplus Transfection, Illkirch, France). […] Luciferase activity was measured 24 h later (Luciferase assay system, Promega, Madison, WI, USA). β-Galactosidase activity was used to normalize transfection efficiency. Chemicals were tested in at least 3 independent experiments and each experiment was performed in triplicate."}, "[5]": {"tested_on": "cyp19a1b transcripts", "test": "cyp19a1b in situ hybridization on 7-dpf brain sections", "type": "in vivo, zebrafish", "details": "7-dpf larvae; for distribution of cyp19a1b transcripts in the whole brain: transverse sections", "method": "as §1\nLarvae used for in situ hybridization experiments originated from the same exposition groups than RT-qPCR experiments. After exposure to the different conditions, 10 wild type 7-dpf larvae (for each treatment) were fixed overnight at 4°C in 4% paraformaldehyde, before embedding in parrafin. Serial thin transverse sections ([…]) were placed on cryofrost slides and subjected to in situ hybridization experiments. Sense and antisense digoxigenin-labeled riboprobes for the cyp19a1b gene were transcribed using the Digoxigenin RNA labeling kit in accordance with the manufacturer's instructions (Roche, Mannheim, Germany) and as previously described (Menuet et al., [2005]). The brain sections were processed for in situ hybridization using stringent conditions as previously published (D'Amico et al., [2011], [2013]). After NBT/BCIP revelation, sections were counterstained with DAPI, and mounted in a drop of vectashield (Vector Laboratories). All sections were photographed with an Olympus PROVIS AX70 microscope with a digital camera (Olympus SP71), or a Nikon multizoom AZ100 macroscope with a DS-Ri1 color camera."}, "[6]": {"tested_on": "cyp19a1b promoter", "test": "EASZY assay: GFP fluorescence in brain of live cyp19a1b-GFP transgenic 4-dpf larvae", "type": "in vivo, zebrafish", "details": "4-dpf cyp19a1b-GFP larvae, exposure 2 hpf to 4 dpf", "method": "Quantification of fluorescence in transgenic cyp19a1b-GFP zebrafish larva brain was performed according to Brion et al. ([2012]). In this assay, estrogenic activity is detected in living 4 days-old larvae (treated or not with an estrogen mimic compound) from the observation of the reporter gene fluorescence in the radial glial cells. […] All photographs were taken using the same parameters: only the head was photographed under a X10 objective, with a 134 ms exposure time and maximal intensity. Photographs were analyzed using the Axiovision Imaging software and fluorescence quantification was performed using the ImageJ software (http://rsbweb.nih.gov/ij/). For each picture, the integrated density was measured, i.e., the sum of the gray-values of all the pixels within the region of interest. A gray-value of 290 was defined as background value. For each micrograph the fluorescence fold induction of fluorescence was calculated comparing the integrated pixel density with the average fluorescence induction obtained in the control group."}, "[7]": {"biological_target": "zfERβ2 (Danio rerio, UniProt Q7ZU32)", "sequence (Q7ZU32 1-553)": "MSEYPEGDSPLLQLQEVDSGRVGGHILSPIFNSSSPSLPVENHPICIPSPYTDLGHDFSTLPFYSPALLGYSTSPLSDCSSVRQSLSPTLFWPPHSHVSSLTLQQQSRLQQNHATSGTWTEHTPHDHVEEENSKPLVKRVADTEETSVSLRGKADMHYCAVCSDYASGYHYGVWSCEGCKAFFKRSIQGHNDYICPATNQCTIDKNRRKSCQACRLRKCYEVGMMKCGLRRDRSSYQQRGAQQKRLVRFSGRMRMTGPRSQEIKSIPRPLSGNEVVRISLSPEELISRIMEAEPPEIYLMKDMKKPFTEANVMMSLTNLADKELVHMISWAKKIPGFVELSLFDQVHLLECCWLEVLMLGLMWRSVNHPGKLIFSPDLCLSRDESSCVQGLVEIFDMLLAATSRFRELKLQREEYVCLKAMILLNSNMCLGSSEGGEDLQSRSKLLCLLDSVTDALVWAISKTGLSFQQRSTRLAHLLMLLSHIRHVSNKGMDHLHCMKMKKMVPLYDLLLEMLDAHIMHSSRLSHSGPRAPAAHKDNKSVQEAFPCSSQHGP", "test": "cyp19a1b-luciferase reporter gene assay in U251-MG glial cells transfected with zfERβ2", "type": "cell-based, zebrafish", "details": "10–9 M, 24 h, U251-MG cells with ERβ2, vs DMSO", "method": "as §2"}, "[8]": {"biological_target": "T2, zfERβ1 (Danio rerio, UniProt Q5PR29)", "T2 sequence (Q5PR29 1-592)": "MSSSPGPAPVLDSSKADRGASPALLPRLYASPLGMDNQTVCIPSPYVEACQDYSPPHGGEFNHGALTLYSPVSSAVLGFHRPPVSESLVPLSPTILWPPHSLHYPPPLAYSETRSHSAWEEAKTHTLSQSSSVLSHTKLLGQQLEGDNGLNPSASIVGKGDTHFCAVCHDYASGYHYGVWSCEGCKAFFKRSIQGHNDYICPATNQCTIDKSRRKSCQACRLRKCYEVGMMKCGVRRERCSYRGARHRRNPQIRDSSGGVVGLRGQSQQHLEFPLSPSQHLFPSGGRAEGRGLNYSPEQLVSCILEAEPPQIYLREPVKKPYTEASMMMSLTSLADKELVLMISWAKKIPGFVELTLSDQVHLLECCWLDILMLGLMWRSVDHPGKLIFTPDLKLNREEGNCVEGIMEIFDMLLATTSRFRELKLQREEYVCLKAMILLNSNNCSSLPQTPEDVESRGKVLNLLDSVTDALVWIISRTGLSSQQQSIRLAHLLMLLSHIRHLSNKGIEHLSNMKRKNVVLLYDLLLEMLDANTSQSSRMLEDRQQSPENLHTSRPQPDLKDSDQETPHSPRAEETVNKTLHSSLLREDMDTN", "test": "cyp19a1b-luciferase reporter gene assay in U251-MG glial cells transfected with zfERβ1", "type": "cell-based, zebrafish", "details": "10–9 M, 24 h, U251-MG cells with ERβ1, vs DMSO", "description": "The zfER-α, zfER-β1, and zfER-β2 expression vectors correspond to Topo-pcDNA3 expression vector (Invitrogen, San Diego, CA, USA), containing the coding regions of each zebrafish estrogen receptor cDNA as previously described (Menuet et al., [2002]). The cyp19a1b-Luciferase plasmid consists of 500 bp of the proximal promoter region of zebrafish cyp19a1b gene, containing an ERE, coupled to the luciferase reporter gene (Menuet et al., [2002]).\nas §2, with “Human U251-MG glial cells were maintained in phenol red-free Dulbecco's Modified Eagle's Medium (DMEM; Life Technologies, Saint Aubin, France) supplemented with 10% fetal calf serum (Biowest, Nuaillé, France), 4 mM L-Glutamine (Gibco, Carlsbad, CA, USA) and 1 mM Na-Pyruvate (Life Technologies, Saint Aubin, France) and kept at 37°C and 5% CO2 atmosphere (Le Page et al., [2006]). The” for “The”"}}, "note": "Like-named read-outs stand apart in the source and are kept apart here."}
{"compound": "CC(C)(c1ccc(O)cc1)c1ccc(O)cc1", "note": "[BPA, 2,2-bis(4-hydroxyphenyl)propane, reference compound]", "values": [{"measurement": "receptor-binding activity", "setting": "[1]", "value": "bind in vitro to ERα receptor"}, {"measurement": "IC50", "setting": "[1]", "value": 2.8, "unit": "µM"}, {"measurement": "toxic or teratogenic effect", "setting": "[2]", "value": "did not caused notable toxicological effects"}, {"measurement": "fold induction at 0.1 µM", "setting": "[3]; Danio rerio, read-out: cyp19a1b gene expression, fold induction relative to DMSO, 0.1 μM, 7-dpf larvae brains, Figure 1A", "value": 9}, {"measurement": "fold induction at 1 µM", "setting": "[3]; Danio rerio, read-out: cyp19a1b gene expression, fold induction relative to DMSO, 1 μM, 7-dpf larvae brains, Figure 1A", "value": "~20"}, {"measurement": "fold induction at 1 µM", "setting": "[3]; Danio rerio, read-out: cyp19a1b gene expression, fold induction relative to DMSO, 1 μM, 7-dpf larvae brains, six independent exposures, Figure 1B", "value": "~36"}, {"measurement": "fold induction at 10 µM", "setting": "[3]; Danio rerio, read-out: cyp19a1b gene expression, fold induction relative to DMSO, 10 μM, 7-dpf larvae brains, Figure 1A", "value": 12}, {"measurement": "cyp19a1b-luciferase reporter gene induction", "setting": "[4]", "value": "significant stimulation"}, {"measurement": "cyp19a1b transcripts in the nucleus recessus posterioris (nrp), caudal hypothalamus", "setting": "[5]; 1 μM", "value": "strong levels of cyp19a1b transcripts"}, {"measurement": "distribution of cyp19a1b transcripts in the whole brain", "setting": "[5]; 1 μM", "value": "strong presence of cyp19a1b transcripts in virtually identical regions than EE2-treated larvae"}, {"measurement": "fold induction at 1 µM", "setting": "[6]; Danio rerio, read-out: GFP fluorescence, fold induction above DMSO control", "value": 16}]}
{"compound": "Oc1ccc(Cc2ccc(O)cc2)cc1", "note": "[BPF, 4,4′-dihydroxydiphenyl methane]", "values": [{"measurement": "receptor-binding activity", "setting": "[1]", "value": "bind in vitro to ERα receptor"}, {"measurement": "IC50", "setting": "[1]", "value": 10.6, "unit": "µM"}, {"measurement": "cyp19a1b gene expression, fold induction relative to DMSO", "setting": "[3]; 1 μM, 7-dpf larvae brains, six independent exposures, Figure 1B", "value": 20, "unit": "fold"}, {"measurement": "cyp19a1b-luciferase reporter gene induction", "setting": "[4]", "value": "increased luciferase activity in ERα cells, but the stimulation did not reach statistical significance"}, {"measurement": "distribution of cyp19a1b transcripts in the whole brain", "setting": "[5]; 1 μM", "value": "identical to EE2- and BPA-treated animals"}, {"measurement": "GFP fluorescence, fold induction above DMSO control", "setting": "[6]; 1 μM", "value": 13, "unit": "fold"}]}
{"compound": "C#C[C@]1(O)CC[C@H]2[C@@H]3CCc4cc(O)ccc4[C@H]3CC[C@@]21C", "note": "[EE2, 17α-ethinylestradiol, reference compound]", "values": [{"measurement": "cyp19a1b-luciferase reporter gene induction", "setting": "[7]", "value": "strong induction"}, {"measurement": "distribution of cyp19a1b transcripts in the whole brain", "setting": "[5]; EE2 1 nM", "value": "massive over-expression of the cyp19a1b transcripts"}, {"measurement": "cyp19a1b-luciferase reporter gene induction", "setting": "[8]", "value": "strong induction"}]}
{"compound": "C[C@]12CC[C@@H]3c4ccc(O)cc4C[C@@H](CCCCCCCCC[S+]([O-])CCCC(F)(F)C(F)(F)F)[C@H]3[C@@H]1CC[C@@H]2O", "note": "(stereo partly drawn) [ICI, reference compound]", "values": [{"measurement": "effect on BPA, BPF and BPAF stimulations of cyp19a1b-luciferase", "setting": "[4]; simultaneous treatment, ERα-expressing U251-MG cells, Figure 7B", "value": "completely abolished"}]}
